Assay results as given in patent publication US20260070927A1, “INDAZOLE MACROCYCLES FOR THE TREATMENT OF AUTOIMMUNE DISEASE” (Hoffmann-La Roche Inc., priority 2022, published 2026).
Read-outs that look alike come from different tables or passages of the source.

What was measured:
hERG channel = hERG channel (Homo sapiens (Human), UniProt Q12809); test: hERG channel inhibition assay (patch-clamp, CHOhERG cells); format: cell-based; conditions: for IC20: human, CHO cells stably expressing hERG (CHOhERG)
Sequence of hERG channel (Q12809 whole entry): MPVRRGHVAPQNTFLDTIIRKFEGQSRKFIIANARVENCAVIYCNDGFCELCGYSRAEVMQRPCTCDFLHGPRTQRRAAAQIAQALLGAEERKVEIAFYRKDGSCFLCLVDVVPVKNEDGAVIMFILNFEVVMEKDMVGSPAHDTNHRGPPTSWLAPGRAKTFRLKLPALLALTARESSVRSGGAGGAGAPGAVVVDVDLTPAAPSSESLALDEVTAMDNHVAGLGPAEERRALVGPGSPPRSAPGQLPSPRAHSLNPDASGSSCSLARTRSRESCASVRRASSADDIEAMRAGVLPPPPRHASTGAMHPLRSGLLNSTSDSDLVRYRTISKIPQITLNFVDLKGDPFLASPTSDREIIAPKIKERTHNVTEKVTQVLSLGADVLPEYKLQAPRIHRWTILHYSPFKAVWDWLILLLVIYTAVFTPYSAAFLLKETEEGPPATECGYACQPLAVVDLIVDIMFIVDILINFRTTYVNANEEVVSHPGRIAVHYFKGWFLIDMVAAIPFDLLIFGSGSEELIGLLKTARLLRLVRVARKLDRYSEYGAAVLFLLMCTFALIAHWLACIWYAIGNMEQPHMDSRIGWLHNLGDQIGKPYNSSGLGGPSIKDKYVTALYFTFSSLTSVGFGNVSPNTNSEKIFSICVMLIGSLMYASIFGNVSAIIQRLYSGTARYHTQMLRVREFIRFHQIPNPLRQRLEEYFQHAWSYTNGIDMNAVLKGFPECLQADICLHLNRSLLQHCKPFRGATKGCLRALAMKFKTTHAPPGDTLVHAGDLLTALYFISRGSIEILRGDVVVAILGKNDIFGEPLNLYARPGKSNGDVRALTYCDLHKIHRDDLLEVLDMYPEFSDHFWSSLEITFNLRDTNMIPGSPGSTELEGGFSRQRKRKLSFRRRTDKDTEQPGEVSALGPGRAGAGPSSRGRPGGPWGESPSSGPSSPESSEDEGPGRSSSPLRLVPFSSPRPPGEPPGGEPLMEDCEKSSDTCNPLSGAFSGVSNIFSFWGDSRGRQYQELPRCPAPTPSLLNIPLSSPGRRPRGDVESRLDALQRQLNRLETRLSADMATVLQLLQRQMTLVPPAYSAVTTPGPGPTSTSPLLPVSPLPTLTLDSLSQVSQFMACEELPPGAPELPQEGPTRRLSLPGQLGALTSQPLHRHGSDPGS
Source text: The hERG K^+ channels were cloned in humans and stably expressed in a CHO (Chinese hamster ovary) cell line. CHOhERG cells (obtained from Roche Palo Alto LLC Cell Core Facilities) were used for patch-clamp (voltage-clamp, whole-cell) experiments. Cells were stimulated by a voltage pattern to activate hERG channels and conduct IKhERG currents (rapid delayed outward rectifier potassium current of the hERG channel). After the cells were stabilized in an internal solution that contains (in mM): KCl 10, KF 100, NaCl 10, HEPES 10, EGTA 20, pH=7.2 with KOH (osmolarity 260-300 mOsm) for a few minutes, the amplitude and kinetics of IKhERG were recorded at a stimulation frequency of 0.1 Hz (6 bpm). Thereafter, the test compound was dissolved in extracellular solution that contains (in mM): NaCl 150, KCl 4, CaCl2 1.2, MgCl2 1, HEPES 10, glucose 5, pH 7.2-7.4 with NaOH (osmolarity 290-330 mOsm), and was added to the preparation at increasing concentrations. For each concentration, an attempt was made to reach a steady-state effect, usually, this was achieved within 3-10 min at which time the next highest concentration was applied. The amplitude and kinetics of IKhERG are recorded in each concentration of the drug which were compared to the control values (taken as 100%).

STING (IFN-β in hPBMC) = test: hPBMC cytokine functional assay (IFN-β decrease after Baculovirus stimulation); format: cell-based; conditions: Homo sapiens, Baculovirus MOI 40, 24 hours, read-out: hPBMC_IC50
Outline: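 Thawed hPBMC (70K cells/well) rested ≥3 h, then dosed with compound (final 0.5% DMSO) and infected with Baculovirus at MOI 40. Secreted IFN-β read by HTRF after 24 h at 37 °C. Cell viability checked in parallel by CellTiter-Glo.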

[1] = target: human stimulator of interferon genes (STING) (139-379) (Homo sapiens (Human), UniProt Q86WV6); test: Microliter plate-based TR-FRET competition-binding assay for binders of STING; conditions: Alexa488 probe, read-out: FRET_IC50
Sequence of human stimulator of interferon genes (STING) (139-379) (Q86WV6 139-379): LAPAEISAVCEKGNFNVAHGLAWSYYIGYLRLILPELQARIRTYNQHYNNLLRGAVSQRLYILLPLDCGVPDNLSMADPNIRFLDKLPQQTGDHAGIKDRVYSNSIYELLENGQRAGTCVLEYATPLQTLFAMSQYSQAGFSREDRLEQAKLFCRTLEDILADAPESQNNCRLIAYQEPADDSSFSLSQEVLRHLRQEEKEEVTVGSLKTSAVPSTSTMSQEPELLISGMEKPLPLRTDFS
Outline: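 E. coli-expressed C-terminal flag-tagged STING (139-379) at 2.5 nM with 2.5 nM Tb-anti-Flag and 250 nM Alexa488-labelled active-site probe, 30 min at room temperature. TR-FRET 520/485 nm ratio after 320 nm excitation. Percent inhibition calculated relative to the 2′3′cGAMP positive control.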

[2] = Single dose pharmacokinetics (SDPK) study in male C57BL/6J mice; format: in vivo; conditions: mouse; for clearance / AUC / half-life / Vd / Cmax: male, C57BL/6J, plasma; for half-life: read-out: T½ (converted); for Vd: read-out: Vss; for F: dose normalized AUCo-last after IV 1 mg/kg and PO 10 mg/kg
Method: Single Dose Pharmacokinetics (SDPK) Study in Male C57BL/6J Mice Pharmacokinetic properties of compounds were assessed by single dose PK studies in Male C57BL/6J Mice (vendor: WTLH-BJ). Briefly, two groups of animals were administered a single dose of respective compound intravenously (IV, bolus) at 1 mg/kg or orally (PO, by gavage) at 10 mg/kg. Blood samples were collected via Jugular vein at 5 min (only for IV), 15 min, 30 min, 1 h, 2 h, 4 h, 7 h and 24 h post-dose. Blood samples were placed into pre-chilled commercial EDTA-K2 tubes (vendor: Jiangsu Kangjian medical supplies co., LTD) and centrifuged at 3,200 g for 10 min at 4° C. to separate plasma from the samples. After centrifugation, the resulting plasma was transferred to clean tubes for bioanalysis with LC/MS/MS. The pharmacokinetic parameters were calculated using noncompartmental analysis. The volume of distribution (Vss), half-life (T1/2) and clearance (CL) were obtained based on the plasma concentration-time curve after IV dose. The peak concentration (Cmax) was recorded directly from experimental observations after PO dose. The area under the plasma concentration-time curve (AUCo-last) was calculated using the linear trapezoidal linear interpolation rule up to the last detectable concentration. The bioavailability (F) was calculated based on the dose normalized AUCo-last after IV and PO dose.

[3] = Metabolic (liver microsomal) stability assay; conditions: human liver microsomes, 1 μM test compound
Method: (§1) The liver microsomal stability assay is used for early assessment of metabolic stability of a test compound in liver microsomes.
(§2) Liver microsomes were preincubated with test compound for 10 minutes at 37° C. in 100 mM potassium phosphate buffer, pH 7.4. The reactions were initiated by adding NADPH regenerating system. The final incubation mixtures contained 1 μM test compound, 0.5 mg/mL liver microsomal protein, 1 mM MgCl2, 1 mM NADP, 1 unit/mL isocitric dehydrogenase and 6 mM isocitric acid in 100 mM potassium phosphate buffer, pH 7.4. After incubation times of 0, 3, 6, 9, 15 and 30 minutes at 37° C., 300 μL of cold acetonitrile (including internal standard) was added to 100 μL incubation mixture to terminate the reaction. Following precipitation and centrifugation, the amount of compound remaining in the samples were determined by LC-MS/MS. Controls of no NADPH regenerating system at zero and 30 minutes were also prepared and analyzed.

[4] = microsomes
Method: as §1, §2

[5] = IV 1 mg/kg, read-out: IV AUCo-last
[6] = PO 10 mg/kg, read-out: PO AUCo-last

SMILES	IC50 (hERG channel) [nM]	IC20 (hERG channel) [nM]	IC50 (STING (IFN-β in hPBMC)) [nM]	IC50 [1] [nM]	clearance ([2]; IV 1 mg/kg) [mL/min/kg]	AUC [2, 5] [ng·h/mL]	half-life ([2]; IV 1 mg/kg) [min]	Vd ([2]; IV 1 mg/kg) [L/kg]	Cmax ([2]; PO 10 mg/kg) [ng/mL]	AUC [2, 6] [ng·h/mL]	F [2] [%]	Clearance of human microsome [3] [mL/min/kg]	Clearance of human microsome [4] [mL/min/kg]
COc1cc(F)ccc1-n1ncc2c(N3C[C@@H]4C[C@H]3C(=O)N(C)CCCc3c5c(cccc5nn3C)-c3ccnc(n3)N4)ncnc21 [Example 6, (8S,11S)-10-[1-(4-fluoro-2-methoxy-phenyl)pyrazolo[3,4-d]pyrimidin-4-yl]-13,18-dimethyl-5,7,10,13,18,19,26-heptazapentacyclo[15.6.1.1^2,6.1^8,11.0^20,24]hexacosa-1(23),2,4,6(26),17(24),19,21-heptaen-12-one]	> 20000	> 10000	588	5	14.5	1120	48	0.9	2990	4740	42	15.7	–
CN1CCCc2c3c(cccc3nn2C)-c2ccnc(n2)O[C@H]2C[C@@H](C1=O)N(c1ncnc3c1cnn3-c1ccc(F)cc1F)C2 [Example 11, (8S,11S)-10-[1-(2,4-difluorophenyl)pyrazolo[3,4-d]pyrimidin-4-yl]-13,18-dimethyl-7-oxa-5,10,13,18,19,26-hexazapentacyclo[15.6.1.1^2,6.1^8,11.0^20,24]hexacosa-1(23),2(26),3,5,17(24),19,21-heptaen-12-one]	> 20000	> 10000	803	21.4	11.1	1500	60	0.8	2780	7120	48	6.1	–
COc1cc(F)ccc1-n1ncc2c(N3C[C@@H]4C[C@H]3C(=O)N(CCCN3CCOCC3)CCCc3c5c(cccc5nn3C)-c3ccnc(n3)N4)ncnc21 [Example 47, (8S,11S)-10-[1-(4-fluoro-2-methoxy-phenyl)pyrazolo[3,4-d]pyrimidin-4-yl]-18-methyl-13-(3-morpholinopropyl)-5,7,10,13,18,19,26-heptazapentacyclo[15.6.1.1^2,6.1^8,11.0^20,24]hexacosa-1(23),2(26),3,5,17(24),19,21-heptaen-12-one]	–	–	–	7.2	–	–	–	–	–	–	–	–	6.1
